Columns and labels:
[1] = system: immobilisationsstreßinduzierten gastromukosalen Schädigung der Ratte; assay: Immobilisation-stress-induced gastromucosal damage in the rat (ulcer index); format: in vivo, Sprague-Dawley-Ratten; settings: Dosis 50 mg/kg, intragastral in 1%iger Tylose
Description: Untersuchungen am Modell der immobilisationsstreßinduzierten gastromukosalen Schädigung der Ratte
(1984), "Scand. J. Gastroenterol.", 19, (Suppl. 101), 69).
Gestreßt wurden die Tiere unmittelbar nach Applikation. Nach Versuchsende wurden den Tieren die Mägen in Ethernarkose entnommen. Die Mägen wurden entlang der großen Kurvatur eröffnet und gespült. Ausmaß und Beschaffenheit der Läsionen wurden nach einer von Marazzi-Uberti und Turba (C. Med. exp., 4, 284 (1961)) angegebenen Einteilung visuell ausgezählt und als Ulcus-Index ausgedrückt.

[2] = hochdosiert, ca. 50 mg/kg; A. Robert u.a. (1984); cited from earlier work

CN=C(NC#N)NCCSCc1[nH]cnc1C [Cimetidin]
Ulcus-Index (MW ±) SD ([1]; rats fasted 16 h, 10 animals, control 1% Tylose 69,8 ± 10,7, significant vs control): 32,1 ± 6,6*) | % Hemmung ([1]; inhibition of Ulcus-Index vs 1% Tylose control): 54% | ulcus- bzw. cytoprotektive Wirkung [2]: ulcus- bzw. cytoprotektive Wirkung

From patent EP0286781A2, “Pharmaceutical preparation for treating gastro-intestinal tract diseases” (HEUMANN PHARMA GMBH & CO, priority 1987, dated 1988)
